According to patent publication US20260137687A1, “GTPase INHIBITORS AND USES THEREOF” (The Regents of The University of California, priority 2022, published 2026):

Experiments:
[1] = permeability controls; cited from earlier work
K-Ras(G12R)·GDP = target: T1, K-Ras(G12R)·GDP (Homo sapiens, UniProt P01116, G12R); assay: Intact protein mass spectrometry, covalent modification; assay type: binding; conditions: 100 μM compound, pH 7.5, 23° C.; adducts +656 Da and +638 Da
T1 construct: human K-Ras (G12R, aa 1-169); 6xHis tag + TEV cleavage site (N, cleaved yes); made in house; host or cells: E. coli BL21(DE3)
Description: Purified K-Ras variants (4 μM final) were incubated with compounds at 50 or 100 μM (1% v/v DMSO final) in 20 mM HEPES pH 7.5, 150 mM NaCl, 1 mM MgCl2 in a total volume of 150 μL. After the noted time, the samples were analyzed by intact protein LC/MS using a Waters Xevo G2-XS system equipped with an Acquity UPLC BEH C4 1.7 μm column. The mobile phase was a linear gradient of 5-95% acetonitrile/water+0.05% formic acid. The spectra were processed using QuantLynx, giving the ion counts observed for the most abundant species. For assays conducted under an alternate pH, the HEPES buffer was replaced with one of the following buffers (maintaining 150 mM NaCl and 1 mM MgCl2): 20 mM MES pH 6 or 20 mM Tris pH 9.

[2] = tested on: BaF3/G12R cells (±IL-3), TCC-Pan-2 cells, and A375 cells; assay: Cellular activity (phospho-ERK immunoblot, growth inhibition); assay type: cell-based; conditions: at concentrations below 100 μM
Description: When indicated, cells were treated with drugs at 40-60% confluency at a final DMSO concentration of 1%. At the end of treatment period, cells were placed on ice. Unless otherwise indicated, adherent cells were washed once with ice-cold PBS (1 mL), scraped with a spatula, and pelleted by centrifugation (500×g, 5 min). Suspension cells were pelleted by centrifugation (500×g, 5 min), washed with 1 mL ice-cold PBS, and pelleted again. Cells were lysed in RIPA buffer supplemented with protease and phosphatase inhibitors (cOmplete and phosSTOP, Roche) on ice for 10 min. Lysates were clarified by high-speed centrifugation (19,000×g, 10 min). Concentrations of lysates were determined with protein BCA assay (Thermo Fisher) and adjusted to 2 mg/mL with additional RIPA buffer (or Co-IP Lysis Buffer). Samples were mixed with 5×SDS Loading Dye and heated at 95° C. for 5 min.
Cells were seeded into 96-well white flat bottom plates (1,000 cells/well) (Corning) and incubated overnight. Cells were treated with the indicated compounds in a nine-point threefold dilution series (100 μL final volume) and incubated for 72 h. Cell viability was assessed using a commercial CellTiter-Glo (CTG) luminescence-based assay (Promega). […] Plates were placed on an orbital shaker for 30 min before recording luminescence using a Spark 20M (Tecan) plate reader.

[3] = target: T2, K-Ras(G12R) Cyslight bound by GDP (Homo sapiens, UniProt P01116, C118S/C51S/C80L/G12R); assay: LC-MS analysis of adduct formation for crystallization; assay type: binding; conditions: 100 μM protein, 200 μM compound, 23° C.
T2 construct: human K-Ras G12R Cyslight (G12R/C51S/C80L/C118S, aa 1-169); 6xHis tag + TEV cleavage site (N, cleaved yes); made in house; host or cells: E. coli BL21(DE3)
Description: K-Ras(G12R) Cyslight ([…]/C51S/C80L/C118S) bound by GDP purified by size exclusion chromatography was diluted to 100 μM in Reaction Buffer (20 mM HEPES 7.5, 150 mM NaCl, 1 mM MgCl2). […] The reaction mixture was purified by size exclusion chromatography (Superdex75, 20 mM HEPES 7.5, 150 mM NaCl, 1 mM MgCl2) and concentrated to 20 mg/mL. For crystallization, 0.1 μL of the protein was mixed with 0.1 μL well buffer containing 0.1 M MES pH 6.5, 30% w/v PEG 4K. Crystals were grown at 20° C. in a 96-well plate using the hanging-drop vapor diffusion method. Maximal crystal growth was achieved after 7 days. The crystals were transferred to a cryoprotectant solution (0.1 M MES pH 6.5, 30% w/v PEG 4K, 15% glycerol) and flash-frozen in liquid nitrogen.

O=C(N[C@H](CO)[C@H](O)c1ccc([N+](=O)[O-])cc1)C(Cl)Cl [Chloramphenicol]
permeability class of PAMPA control [1]: high

O=C(O)Cc1ccccc1Nc1c(Cl)cccc1Cl [Diclofenac]
permeability class of PAMPA control [1]: medium

CC(=O)CC(=O)N1[C@@H]2CC[C@H]1CN(c1nc(OCC34CCCN3CCC4)nc3c(F)c(-c4cccc5cccc(Cl)c45)ncc13)C2 [compound 2, 1-((1R,5S)-3-(7-(8-chloronaphthalen-1-yl)-8-fluoro-2-((tetrahydro-1H-pyrrolizin-7a(5H)-yl)methoxy)pyrido[4,3-d]pyrimidin-4-yl)-3,8-diazabicyclo[3.2.1]octan-8-yl)butane-1,3-dione]
covalent adduct formation with recombinant K-Ras(G12R)·GDP (K-Ras(G12R)·GDP): did not form any detectable covalent adduct

CC(=O)C(O)(O)C(=O)N1CCN(c2nc(OCC34CCCN3CCC4)nc3c(F)c(-c4cccc5cccc(Cl)c45)ncc23)C[C@@H]1CC#N [compound 4, (S)-2-(4-(7-(8-chloronaphthalen-1-yl)-8-fluoro-2-((tetrahydro-1H-pyrrolizin-7a(5H)-yl)methoxy)pyrido[4,3-d]pyrimidin-4-yl)-1-(2,2-dihydroxy-3-oxobutanoyl)piperazin-2-yl)acetonitrile]
cellular activity [2]: did not show cellular activity
conversion of K-Ras(G12R) Cyslight·GDP to covalent adduct [3]: full conversion to a single covalent adduct
